# Source: patent US20250120928A1 (University of Maryland, Baltimore, priority 2021, published 2025)
# Tests used:
# [1] = tested on: B cells (B220+) isolated from splenocytes; experiment: Splenocyte apoptosis and cell death by AV/PI flow cytometry, B cells; type: cell-based
# Protocol: Splenocytes were isolated from spleens as previously described. Briefly, 5-12-week C57BL/6J female mice were euthanized and the spleen was isolated. The spleen was processed into single-cell suspensions using a 40 μm cell strainer and flushed with cold PBS supplemented with 1% FBS and 0.4% 0.5 M EDTA (Quality Biological, Gaithersburg, MD). Erythrocytes were lysed with ACK lysis buffer (Quality Biological, Gaithersburg, MD). […] Subsequently, splenocytes were stimulated with 100 ng/mL LPS for 24 hours. Splenocytes were then washed with cold PBS supplemented with 1% FBS and 0.4% 0.5 M EDTA and FcR blocked, as previously mentioned. Splenocytes were then stained with purified anti-mouse PE/Cyanine7 CD45R/B220 antibody (#103222) (BioLegend, San Diego, CA) for the B cell population. SAHA and SAHA-OH apoptosis and cell death were then assessed using the FITC-AV Apoptosis Detection Kit with PI via flow cytometry, as previously mentioned. Flow cytometry data were collected using a Cytex Aurora flow cytometer. Flow plots and data processing was done using FCS Express 7 Flow Cytometry De Novo Software (De Novo, Glendale, CA).
# [2] = tested on: unstimulated BMMØs; experiment: MTS assay; type: cell-based, C57BL/6J mice; settings: Mus musculus; unstimulated BMMØs treated for 48 hours; read-out: IC50 (MTS assay, cellular proliferation)
# Protocol: Cells were then washed with PBS and 50 μL of MTS solution was added to each well and incubated for 1 hour. The optical density (O.D.) of the solution was measured using a SpectraMax iD3 microplate reader at 570 nm. The percentage of cell proliferation was measured as the ratio of O.D. at 570 nm to no treatment control. IC50 values were calculated using GraphPad Prism 9 program based on a sigmoidal dose-response equation.
# [3] = tested on: T1, HDAC1, 2, 3; experiment: Fluorescence-based HDAC activity assay with fluorogenic peptide substrate (Reaction Biology); type: biochemical
# T1 construct: other: range over the three isoforms; other: 237-359 nM compared to 30000 nM
# Protocol: Fluorescence-based activity assays using fluorogenic peptides as substrates for HDAC1, 2, 3, 6, and 8 were performed by Reaction Biology Corporation (reactionbiology.com). […] The substrate for HDACs 1, 2, 3, and 6 was a fluorogenic peptide from p53 residues 379-382 (RHKK(Ac)AMC) (SEQ ID NO: 1). The substrate for HDAC8 was a fluorogenic peptide from p53 residues 379-382 (RHK(Ac)K(Ac)AMC) (SEQ ID NO: 2). SAHA-OH IC50 values were calculated using GraphPad Prism 4 program based on a sigmoidal dose-response equation. The blank (DMSO) value was entered as 1.00×10^−12 of concentration for curve fitting.
# [4] = tested on: BMMØs; type: cell-based; settings: 0-30 μM
# Protocol: (§1) Three hours later, cells were stimulated with 100 ng/mL LPS. After 48 hours, cells were lifted using Versene and washed with cold PBS supplemented with 1% FBS and 0.4% 0.5 M EDTA (Quality Biological, Gaithersburg, MD). FcR blocking was performed with purified anti-mouse CD16/32 antibody (#101301) (Biolegend, San Diego, CA) prior to staining with Annexin V-FITC and propidium iodide kit (#640914) (BioLegend, San Diego, CA) for apoptosis and cell death. Cell staining was conducted according to BioLegend protocols for flow cytometry. Flow cytometry data were collected using a Becton Dickinson LSR II or Becton Dickinson Canto II flow cytometer. Flow plots and data processing was done using FCS Express 7 Flow Cytometry De Novo Software (De Novo, Glendale, CA).
# as §1, with “After” for “Three hours later, cells were stimulated with 100 ng/mL LPS. After”
smiles,measurement,setting,value
"O=C(CCCCCCC(=O)Nc1ccc(CO)cc1)NO [SAHA-OH, N^1-hydroxy-N^8-(4-(hydroxymethyl)phenyl)octanediamide]",toxicity profile for the B cell population,[1]; 0-30 μM,concentration-dependent toxicity profiles
same,decrease in cell death of the B cell population versus SAHA,[1]; 10 μM,3 fold
same,enhancement in viability of the B cell population versus SAHA,[1]; 10 μM,5 fold
same,IC50,[2],1300 nM
same,"more selective for HDAC1, 2, 3 compared to Tubastatin A",[3]; 237-359 nM compared to 30000 nM,approximately 100 fold
same,IC50,"[3]; range over the three isoforms, read-out: IC50 against HDAC1, 2, 3",237 to 359 nM
same,apoptosis (AV+/PI−) over concentration,[4],apoptosis induction
same,viability (AV−/PI−) over concentration,[4],concentration-dependent viability reduction
